# Values quoted from earlier work in US12458674B2, “M13 phage based gene therapy platform” (Massachusetts Institute of Technology, priority 2021, dated 2025).
# Settings: in vivo
compound,measurement,value
Cn1nnc2c(C(N)=O)ncn2c1=O [temozolomide],CSF to plasma ratio,about 20%
